In ChEMBL document CHEMBL1122023, “Potential antitumor agents. 36. Quantitative relationships between experimental antitumor activity, toxicity, and structure for the general class of 9-anilinoacridine antitumor agents” (J Med Chem, 1982):

Assay: physchem
Description: Ionization constant (pKa)

pKa | SMILES
5.63 | COc1cc(NS(C)(=O)=O)ccc1Nc1c2ccccc2nc2ccc([N+](=O)[O-])cc12
8.24 | CCCNc1ccc(Nc2c3ccccc3nc3ccccc23)cc1
6.79 | COc1cc(NS(C)(=O)=O)ccc1Nc1c2ccc(Cl)cc2nc2c(OC)cccc12
7.1 | COc1ccc2[nH]c3ccccc3c(=Nc3ccc(NS(C)(=O)=O)cc3OC)c2c1
7.55 | CC(=O)Nc1ccc2c(Nc3ccc(NS(C)(=O)=O)cc3)c3ccc(NC(C)=O)cc3nc2c1
5.68 | COc1cc(NS(C)(=O)=O)ccc1Nc1c2ccc([N+](=O)[O-])cc2nc2c(OC)cccc12
5.94 | COc1cc(NS(C)(=O)=O)ccc1Nc1c2ccccc2nc2ccncc12
7.14 | CCc1cccc2c(Nc3ccc(NS(C)(=O)=O)cc3)c3ccccc3nc12
6.72 | COc1cc(NS(C)(=O)=O)ccc1Nc1c2ccc(I)cc2nc2ccc(N)cc12
5.87 | COc1cc(NS(C)(=O)=O)ccc1Nc1c2ccccc2nc2cc(S(C)(=O)=O)ccc12
6.71 | CS(=O)(=O)Nc1ccc(Nc2c3ccccc3nc3cc(Cl)c(N)cc23)cc1
7.27 | CN(C)c1ccc2nc3ccccc3c(Nc3ccc(NS(C)(=O)=O)cc3)c2c1
6.03 | COc1cc(NS(C)(=O)=O)ccc1Nc1c2ccc(C)cc2nc2cc([N+](=O)[O-])ccc12
7.26 | COc1cc(NS(C)(=O)=O)ccc1Nc1c2ccccc2nc2cc(N=[N+]=[N-])ccc12
9.5 | CNc1ccc2c(Nc3ccc(NS(C)(=O)=O)cc3OC)c3ccccc3nc2c1
7.19 | COc1cc(NS(C)(=O)=O)ccc1Nc1c2ccccc2nc2cccnc12
6.69 | COc1cc(NS(C)(=O)=O)ccc1Nc1c2ccccc2nc2ccc(Cl)cc12
6.77 | CS(=O)(=O)Nc1ccc(Nc2c3ccccc3nc3cc(F)ccc23)cc1
7.64 | COc1cc(NS(C)(=O)=O)ccc1Nc1c2ccccc2nc2cc(C(C)(C)C)ccc12
6.7 | COc1cc(NS(C)(=O)=O)ccc1Nc1c2ccc(I)cc2nc2c(OCC(O)CO)cccc12 (stereo not drawn)
7.39 | Cc1cc(NS(C)(=O)=O)ccc1Nc1c2ccccc2nc2c(C)cccc12

pKa | SMILES
7 | COc1cc(NS(C)(=O)=O)ccc1Nc1c2ccccc2nc2c(OCC(O)CO)cccc12 (stereo in doubt; 303)
6.57 | COS(=O)(=O)Nc1ccc(Nc2c3ccccc3nc3cc(Cl)ccc23)cc1
6.71 | COc1cc(NS(C)(=O)=O)ccc1Nc1c2ccccc2nc2c(C)c(Cl)ccc12
7.01 | COc1cc(NS(C)(=O)=O)ccc1Nc1c2ccccc2nc2cc(Br)c(N)cc12
6.17 | COc1cc(NS(C)(=O)=O)ccc1Nc1c2ccc(Br)cc2nc2cc(Br)ccc12
7.46 | CCc1ccc2nc3ccccc3c(Nc3ccc(NS(C)(=O)=O)cc3OC)c2c1
6.59 | COc1cc(NS(C)(=O)=O)ccc1N=c1c2ccccc2[nH]c2ccc(C(N)=O)cc12
7.4 | COc1ccccc1Nc1c2ccccc2nc2ccc(C(C)C)c(NS(C)(=O)=O)c12
7.46 | Cc1ccc2c(Nc3ccc(NS(C)(=O)=O)cc3)c3cccc(C)c3nc2c1
6.18 | COc1cc(NS(C)(=O)=O)ccc1Nc1c2ccc(Cl)cc2nc2cc(Cl)ccc12
6.35 | COc1cc(NS(C)(=O)=O)ccc1Nc1c2ccccc2nc2c(OC3OC(CO)C(O)C(O)C3NC(C)=O)cccc12 (stereo not drawn)
7.37 | CCCC(=O)Nc1ccc2c(Nc3ccc(NS(C)(=O)=O)cc3)c3ccccc3nc2c1
7.5 | COc1cc(NS(C)(=O)=O)ccc1Nc1c2ccccc2nc2cc(CCC(N)=O)ccc12
7.67 | COc1cc(NS(C)(=O)=O)ccc1Nc1c2ccc(C)cc2nc2c(C)cccc12
7.36 | Cc1cc(NS(C)(=O)=O)ccc1Nc1c2ccccc2nc2ccccc12
7.36 | COc1cc(NS(C)(=O)=O)ccc1Nc1c2ccccc2nc2cc(N)ccc12
6.9 | COc1cc(NS(C)(=O)=O)ccc1Nc1c2cccc(OC)c2nc2c(OC)cccc12
6.34 | COc1cc(NS(C)(=O)=O)ccc1Nc1c2ccccc2nc2c(C(=O)NCCO)cccc12
6.52 | COc1ccc2nc3cc(Cl)ccc3c(Nc3ccc(NS(C)(=O)=O)cc3OC)c2c1
9.88 | COc1cc(NS(C)(=O)=O)ccc1Nc1c2ccc(N)cc2nc2c(C)cccc12
6.91 | COc1ccc2c(Nc3ccc(NS(C)(=O)=O)cc3)c3ccc(Cl)cc3nc2c1

pKa | SMILES
6.68 | CS(=O)(=O)Nc1ccc(Nc2c3ccccc3nc3c(CO)cccc23)cc1
6.91 | COc1cc(NS(C)(=O)=O)ccc1Nc1c2cccc(C)c2nc2c(C)cccc12
4.98 | COc1cc(NS(C)(=O)=O)ccc1Nc1c2ccccc2nc2cccc([N+](=O)[O-])c12
6.02 | CS(=O)(=O)Nc1ccc(NS(C)(=O)=O)c(Nc2c3ccccc3nc3ccccc23)c1
7.15 | COc1cc(NS(=O)(=O)OC)ccc1Nc1c2ccccc2nc2c(CCC(N)=O)cccc12
7.35 | CCC(=O)Nc1ccc2c(Nc3ccc(NS(C)(=O)=O)cc3)c3ccccc3nc2c1
6.74 | COc1cc(NS(C)(=O)=O)ccc1Nc1c2ccc(I)cc2nc2c(OC)cccc12
6.56 | COc1cc(NS(C)(=O)=O)ccc1Nc1c2ccccc2nc2cc(C(F)(F)F)c(N)cc12
5.42 | CS(=O)(=O)Nc1ccc(Nc2c3ccccc3nc3ccccc23)cc1[N+](=O)[O-]
7.34 | CCCCOc1cccc2c(Nc3ccc(NS(C)(=O)=O)cc3OC)c3ccccc3nc12
7.36 | CCCOc1cccc2c(Nc3ccc(NS(C)(=O)=O)cc3OC)c3ccccc3nc12
7.65 | COc1cc(NS(C)(=O)=O)ccc1Nc1c2ccccc2nc2c(C)c(C)ccc12
7.38 | COc1cc(NS(C)(=O)=O)ccc1N=c1c2ccccc2[nH]c2ccc(C(C)(C)C)cc12
6.56 | CS(=O)(=O)Nc1ccc(Nc2c3ccc(Cl)cc3nc3ccc(N)cc23)cc1
5.81 | Cc1ccc2c(Nc3ccc(NS(C)(=O)=O)cc3)c3ccc([N+](=O)[O-])cc3nc2c1
7.13 | CN(C)/N=N/c1ccc2c(Nc3ccc(NS(C)(=O)=O)cc3)c3ccccc3nc2c1
6.26 | O=[N+]([O-])c1ccc2nc3ccccc3c(Nc3ccccc3)c2c1
7.77 | COc1cc(NS(C)(=O)=O)ccc1Nc1c2ccccc2nc2cc(NC(C)=O)ccc12
6.71 | COc1cc(NS(C)(=O)=O)ccc1Nc1c2ccccc2nc2cccc(C)c12
7.22 | COc1cc(NS(C)(=O)=O)ccc1Nc1c2ccc(N=[N+]=[N-])cc2nc2c(C)cccc12

SMILES | pKa
COc1cc(NS(C)(=O)=O)ccc1Nc1c2ccc([N+](=O)[O-])cc2nc2cc([N+](=O)[O-])ccc12 | 3.82
